The target in one experiment is T1, Cbl (aa49-434) (Homo sapiens, UniProt P22681).
T1 construct: Cbl (aa49-434, in-house); made in house
T1 sequence (P22681 49-434): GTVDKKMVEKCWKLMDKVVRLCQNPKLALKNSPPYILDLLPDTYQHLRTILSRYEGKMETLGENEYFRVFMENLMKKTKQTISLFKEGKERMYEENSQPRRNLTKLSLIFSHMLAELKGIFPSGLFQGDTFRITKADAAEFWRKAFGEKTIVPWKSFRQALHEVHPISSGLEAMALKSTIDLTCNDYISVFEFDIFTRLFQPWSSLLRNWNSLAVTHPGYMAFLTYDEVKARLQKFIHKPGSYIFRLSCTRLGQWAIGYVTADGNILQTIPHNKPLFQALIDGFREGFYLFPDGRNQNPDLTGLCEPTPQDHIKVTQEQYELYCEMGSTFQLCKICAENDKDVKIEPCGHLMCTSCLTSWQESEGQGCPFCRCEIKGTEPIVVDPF
In words: Co-expressed Cbl with BirA biochemical assay (CBL/E2-Ub binding, HTRF). As to conditions: 0.6 nM Cbl co-expressed with BirA, read-out: co-express CBL/E2-Ub-binding assay IC50. The text has this:
(§1) The assay in the absence of a Cbl-b/Cbl inhibitor, where phosphorylation of Cbl-b/Cbl by the Src kinase allows UbcH5B-Ub to bind to Cbl-b/Cbl and brings the Bodipy-Fluorescein tagged ubiquitin in proximity to the streptavidin-terbium bound to the N-terminal biotinylated Avi-tagged Cbl-b/Cbl. […] The lack of a FRET signal indicates Cbl-b/Cbl is inhibited by the Cbl-b/Cbl inhibitor.

A further experiment has as its target T2, Cbl-b (aa36-427) (Homo sapiens, UniProt Q13191).
T2 construct: Cbl-b (aa36-427, in-house); made in house
As to the kind of experiment: Co-expressed Cbl-b with BirA biochemical assay (CBLB/E2-Ub binding, HTRF). The note with it: 0.6 nM Cbl-b co-expressed with BirA, HTRF; read-out: co-express CBLB/E2-Ub-binding assay IC50.
Excerpt: as §1

T2 sequence (Q13191 36-427): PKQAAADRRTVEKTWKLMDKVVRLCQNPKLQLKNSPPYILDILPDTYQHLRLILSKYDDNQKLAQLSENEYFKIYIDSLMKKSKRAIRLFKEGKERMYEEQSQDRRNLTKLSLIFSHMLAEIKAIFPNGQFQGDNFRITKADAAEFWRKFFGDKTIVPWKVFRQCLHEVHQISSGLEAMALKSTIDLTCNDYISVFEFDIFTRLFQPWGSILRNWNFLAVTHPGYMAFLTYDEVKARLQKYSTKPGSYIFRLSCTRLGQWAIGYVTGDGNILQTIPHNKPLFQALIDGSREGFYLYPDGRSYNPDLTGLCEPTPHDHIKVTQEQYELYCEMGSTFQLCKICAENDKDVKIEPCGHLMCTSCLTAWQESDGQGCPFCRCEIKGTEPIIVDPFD

Consider `C[C@H]1CCCN(Cc2cc(C(=O)Nc3cccc([C@]4(c5nncn5C)C[C@@H](C)C4)c3)nn3cccc23)C1` [Compound B13, 4-{[(3S)-3-methylpiperidin-1-yl]methyl}-N-{3-[(1r, 3s)-3-methyl-1-(4-methyl-1,2,4-triazol-3-yl)cyclobutyl]phenyl}pyrrolo[1,2-b]pyridazine-2-carboxamide], for which the IC50 amounted to 89.1 nM on Cbl (aa49-434) and 30.5 nM at Cbl-b (aa36-427).

As for `Cn1cnnc1[C@]1(c2cccc(NC(=O)c3cc(CNC4(C)CCC4)cn4ccnc34)c2)C[C@H](C)C1` [Compound A39, N-(3-((1s, 3s)-3-methyl-1-(4-methyl-4H-1,2,4-triazol-3-yl)cyclobutyl)phenyl)-6-(((1-methylcyclobutyl)amino)methyl)imidazo[1,2-a]pyridine-8-carboxamide], the IC50 is 14.1 nM at Cbl (aa49-434) and 2.7 nM on Cbl-b (aa36-427).

For the compound `C[C@@H]1CN(Cc2cc(C(=O)Nc3cncc([C@]4(c5nncn5C)C[C@@H](C)C4)c3)c3nccn3c2)CC[C@@H]1F` [Compound A54, 6-(((3R,4S)-4-fluoro-3-methylpiperidin-1-yl)methyl)-N-(5-((1s,3S)-3-methyl-1-(4-methyl-4H-1,2,4-triazol-3-yl)cyclobutyl)pyridin-3-yl)imidazo[1,2-a]pyridine-8-carboxamide], the IC50 was found to be 6 nM on Cbl (aa49-434) and 1.9 nM at Cbl-b (aa36-427).

As to `Cc1c[nH]c2c(CN3CCC[C@H](C)C3)cc(C(=O)Nc3cccc([C@]4(c5nncn5C)C[C@@H](CC#N)C4)c3)nc12` [Compound B10, N-(3-((1s,3R)-3-(cyanomethyl)-1-(4-methyl-4H-1,2,4-triazol-3-yl)cyclobutyl)phenyl)-3-methyl-7-(((S)-3-methylpiperidin-1-yl)methyl)-1H-pyrrolo[3,2-b]pyridine-5-carboxamide], the IC50 at Cbl (aa49-434) was 15.6 nM; at Cbl-b (aa36-427), 2 nM.

As for `Cn1cnnc1[C@]1(c2cccc(NC(=O)c3cc(CNC4(C)CC4)cn4ccnc34)c2)C[C@H](C)C1` [Compound A16, N-(3-((1s, 3s)-3-methyl-1-(4-methyl-4H-1,2,4-triazol-3-yl)cyclobutyl)phenyl)-6-(((1-methylcyclopropyl)amino)methyl)imidazo[1,2-a]pyridine-8-carboxamide], the IC50 at Cbl (aa49-434) was 5.9 nM; on Cbl-b (aa36-427) it was 0.9 nM.

Regarding `Cn1cnnc1[C@]1(c2cccc(NC(=O)c3cc(CNC4(C)CCC4)cn4c(Cl)cnc34)c2)C[C@H](C)C1` [Compound A66, 3-chloro-N-(3-((1s, 3s)-3-methyl-1-(4-methyl-4H-1,2,4-triazol-3-yl)cyclobutyl)phenyl)-6-(((1-methylcyclobutyl)amino)methyl)imidazo[1,2-a]pyridine-8-carboxamide], the values for the IC50 on Cbl (aa49-434) and on Cbl-b (aa36-427) were 3.4 nM and 1.1 nM, respectively.

As for `CC(C)CNCc1cc(C(=O)Nc2cncc([C@]3(c4nncn4C)C[C@@H](C)C3)c2)c2ncc(F)n2c1` [Compound A79, 3-fluoro-6-((isobutylamino)methyl)-N-(5-((1s, 3s)-3-methyl-1-(4-methyl-4H-1,2,4-triazol-3-yl)cyclobutyl)pyridin-3-yl)imidazo[1,2-a]pyridine-8-carboxamide], the IC50 at Cbl (aa49-434) came to 1.4 nM; at Cbl-b (aa36-427), 0.73 nM.

On to `C[C@H]1CCCN(Cc2cc(C(=O)Nc3cccc([C@]4(c5nncn5C)C[C@@H](CC#N)C4)c3)nc3c(F)c[nH]c23)C1` [Compound B11, N-(3-((1s,3R)-3-(cyanomethyl)-1-(4-methyl-4H-1,2,4-triazol-3-yl)cyclobutyl)phenyl)-3-fluoro-7-(((S)-3-methylpiperidin-1-yl)methyl)-1H-pyrrolo[3,2-b]pyridine-5-carboxamide], for which the IC50 worked out at 14.2 nM at Cbl (aa49-434) and 1.3 nM at Cbl-b (aa36-427).

For `C[C@H]1CCCN(Cc2cc(C(=O)Nc3cccc([C@]4(c5nncn5C)C[C@@H](C)C4)c3)c3ncc(F)n3c2)C1` [Compound A6, 3-fluoro-6-{[(3S)-3-methylpiperidin-1-yl]methyl}-N-{3-[(1r, 3s)-3-methyl-1-(4-methyl-1,2,4-triazol-3-yl)cyclobutyl]phenyl}imidazo[1,2-a]pyridine-8-carboxamide], the IC50 at Cbl (aa49-434) amounted to 19.8 nM; on Cbl-b (aa36-427), 7.2 nM.

Turning to `C[C@H](NCc1cc(C(=O)Nc2cccc([C@]3(c4nncn4C)C[C@@H](C)C3)c2)nc2c1CCC2(F)F)C1CCC1` [Compound C59, 4-((((S)-1-cyclobutylethyl)amino)methyl)-7,7-difluoro-N-(3-((1s,3R)-3-methyl-1-(4-methyl-4H-1,2,4-triazol-3-yl)cyclobutyl)phenyl)-6,7-dihydro-5H-cyclopenta[b]pyridine-2-carboxamide], the IC50 was determined as 7.3 nM on Cbl (aa49-434) and 2.5 nM at Cbl-b (aa36-427).

In the case of `CC(C)CNCc1cc(C(=O)Nc2cncc([C@]3(c4nncn4C)C[C@@H](C)C3)c2)nc2c1CCC2(F)F` [Compound C53, 7,7-difluoro-4-{[(2-methylpropyl)amino]methyl}-N-{5-[(1r, 3s)-3-methyl-1-(4-methyl-1,2,4-triazol-3-yl)cyclobutyl]pyridin-3-yl}-5H,6H-cyclopenta[b]pyridine-2-carboxamide], the results for the IC50 on Cbl (aa49-434) and at Cbl-b (aa36-427) were 15.8 nM and 3.7 nM, respectively.

As for `Cn1cnnc1[C@]1(c2cccc(NC(=O)c3cc(CNC4(C)CC4)c4[nH]cc(Cl)c4n3)c2)C[C@H](CC#N)C1` [Compound B24, 3-chloro-N-(3-((1s, 3s)-3-(cyanomethyl)-1-(4-methyl-4H-1,2,4-triazol-3-yl)cyclobutyl)phenyl)-7-(((1-methylcyclopropyl)amino)methyl)-1H-pyrrolo[3,2-b]pyridine-5-carboxamide], the IC50 on Cbl (aa49-434) stood at 17 nM; at Cbl-b (aa36-427), 0.9 nM.

For `Cc1cnc2c(C(=O)Nc3cccc([C@]4(c5nncn5C)C[C@@H](CC#N)C4)c3)cc(CN3CCC[C@H](C)C3)cn12` [Compound A10, 3-methyl-6-{[(3S)-3-methylpiperidin-1-yl]methyl}-N-{3-[(1s, 3s)-3-(cyanomethyl)-1-(4-methyl-1,2,4-triazol-3-yl)cyclobutyl]phenyl}imidazo[1,2-a]pyridine-8-carboxamide], the IC50 was determined as 70.1 nM on Cbl (aa49-434) and 12 nM at Cbl-b (aa36-427).

`Cc1cnc2c(C(=O)Nc3cncc([C@]4(c5nncn5C)C[C@@H](C)C4)c3)cc(CNCC3CCC3)cn12` [Compound A56, 6-{[(cyclobutylmethyl)amino]methyl}-3-methyl-N-{5-[(1r, 3s)-3-methyl-1-(4-methyl-1,2,4-triazol-3-yl)cyclobutyl]pyridin-3-yl}imidazo[1,2-a]pyridine-8-carboxamide]: the IC50 was determined as 4.1 nM on Cbl (aa49-434) and 1.5 nM on Cbl-b (aa36-427).

In the case of `C[C@H]1CCCN(Cc2cc(C(=O)Nc3cccc([C@]4(Cc5nncn5C)C[C@@H](C#N)C4)c3)nc3c(F)c[nH]c23)C1` [Compound B20, N-(3-((1r,3S)-3-cyano-1-((4-methyl-4H-1,2,4-triazol-3-yl)methyl)cyclobutyl)phenyl)-3-fluoro-7-(((S)-3-methylpiperidin-1-yl)methyl)-1H-pyrrolo[3,2-b]pyridine-5-carboxamide], the IC50 came out at 3.9 nM at Cbl (aa49-434) and 1.8 nM on Cbl-b (aa36-427).

With `Cn1cnnc1[C@]1(c2cccc(NC(=O)c3cc(CNC4(C)CCC4)c4[nH]ccc4n3)c2)C[C@H](CC#N)C1` [Compound B27, N-(3-((1s, 3s)-3-(cyanomethyl)-1-(4-methyl-4H-1,2,4-triazol-3-yl)cyclobutyl)phenyl)-7-(((1-methylcyclobutyl)amino)methyl)-1H-pyrrolo[3,2-b]pyridine-5-carboxamide], the IC50 at Cbl (aa49-434) came to 8.4 nM; at Cbl-b (aa36-427), 1.2 nM.

On to `Cn1cnnc1[C@]1(c2cccc(NC(=O)c3cc(CNC4(C)CC4)cn4c(F)cnc34)c2)C[C@H](CC#N)C1` [Compound A17, N-(3-((1s, 3s)-3-(cyanomethyl)-1-(4-methyl-4H-1,2,4-triazol-3-yl)cyclobutyl)phenyl)-3-fluoro-6-(((1-methylcyclopropyl)amino)methyl)imidazo[1,2-a]pyridine-8-carboxamide], for which the IC50 at Cbl (aa49-434) was found to be 20.7 nM; at Cbl-b (aa36-427) it was 0.8 nM.

As for `Cn1cnnc1[C@]1(c2cccc(NC(=O)c3cc(CNCC4CCC4)c4ccsc4n3)c2)C[C@H](C)C1` [Compound B41, 4-{[(cyclobutylmethyl)amino]methyl}-N-{3-[(1r, 3s)-3-methyl-1-(4-methyl-1,2,4-triazol-3-yl)cyclobutyl]phenyl}thieno[2,3-b]pyridine-6-carboxamide], the IC50 stood at 2.3 nM on Cbl (aa49-434) and 0.8 nM on Cbl-b (aa36-427).

Take `Cn1cnnc1[C@]1(c2cccc(NC(=O)c3cc(CNCC4CCCC4)c4c(n3)C(C)(C)CN4)c2)C[C@H](C)C1` [Compound C45, 7-{[(cyclopentylmethyl)amino]methyl}-3,3-dimethyl-N-{3-[(1r, 3s)-3-methyl-1-(4-methyl-1,2,4-triazol-3-yl)cyclobutyl]phenyl}-1H,2H-pyrrolo[3,2-b]pyridine-5-carboxamide]: the IC50 on Cbl (aa49-434) is 5.4 nM; on Cbl-b (aa36-427), 1.3 nM.
